Assay results: BindingDB's records for doi:10.1016/j.chembiol.2011.05.012 (University of Bern, 2011)
Several values for one entry are separate records, joined by “and”; a condition that tells them apart may be missing. Identical values can stand only once.

How the values were obtained:
Cannabinoid receptor 2 = Cannabinoid receptor 2 (Homo sapiens, UniProt P34972); assay: Binding Assay
Excerpt: (§1) Binding assay with hCB1 and hCB2 receptors.

Cannabinoid receptor 1 = Cannabinoid receptor 1 (Homo sapiens, UniProt P21554); assay: Binding Assay
Excerpt: as §1

Cannabinoid receptor 1, sequence (P21554 whole entry): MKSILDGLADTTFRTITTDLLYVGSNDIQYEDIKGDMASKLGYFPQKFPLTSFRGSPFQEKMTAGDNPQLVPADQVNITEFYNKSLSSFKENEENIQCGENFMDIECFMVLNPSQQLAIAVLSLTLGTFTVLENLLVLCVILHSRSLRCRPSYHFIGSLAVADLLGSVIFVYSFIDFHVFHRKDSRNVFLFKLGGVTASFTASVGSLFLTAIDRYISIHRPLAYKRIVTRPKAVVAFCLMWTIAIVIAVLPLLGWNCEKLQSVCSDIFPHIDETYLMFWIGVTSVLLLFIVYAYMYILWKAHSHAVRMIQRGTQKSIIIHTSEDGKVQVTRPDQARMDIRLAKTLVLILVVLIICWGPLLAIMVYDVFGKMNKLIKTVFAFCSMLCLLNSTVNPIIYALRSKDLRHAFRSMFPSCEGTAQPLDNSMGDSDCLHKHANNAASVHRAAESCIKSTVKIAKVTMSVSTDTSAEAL
Cannabinoid receptor 2, sequence (P34972 whole entry): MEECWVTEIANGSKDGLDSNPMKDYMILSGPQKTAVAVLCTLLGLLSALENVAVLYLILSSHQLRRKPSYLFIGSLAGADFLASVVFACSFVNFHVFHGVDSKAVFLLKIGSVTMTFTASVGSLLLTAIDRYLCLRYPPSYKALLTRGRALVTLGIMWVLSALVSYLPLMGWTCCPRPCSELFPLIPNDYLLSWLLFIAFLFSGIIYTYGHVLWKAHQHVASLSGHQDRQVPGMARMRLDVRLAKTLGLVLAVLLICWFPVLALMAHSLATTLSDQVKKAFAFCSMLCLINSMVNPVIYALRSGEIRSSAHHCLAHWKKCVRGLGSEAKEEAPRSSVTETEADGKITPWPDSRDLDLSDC

Row | SMILES | Ki (Cannabinoid receptor 2) | Ki (Cannabinoid receptor 1)
1 | CCCc1ccc(O)c(-c2ccc(O)c(CCC)c2)c1 | 1300 nM | > 5000 nM
2 | CCCc1ccc(O)c(-c2ccc(OC)c(CCC)c2)c1 | 74 nM | > 2000 nM
3 | C=CCc1ccc(O)c(-c2cc(CC=C)ccc2O)c1 [2-(2-hydroxy-5-prop-2-enylphenyl)-4-prop-2-enylphenol] | > 2000 nM | 
4 | CCCCC/C=C/C/C=C/C/C=C/C/C=C/CCCC(=O)OC(CO)CO [2-Arachidonoylglycerol, 2-AG] | 892 nM | 
5 | C=CCc1ccc(O)c(-c2ccc(O)c(CC=C)c2)c1 [3',5-diallylbiphenyl-2,4'-diol] | 1760 nM | 
6 | C=CCc1ccc(O)c(-c2ccc(OC)c(/C=C/C)c2)c1 [Magreth-3a] | 40.8 nM and 59.1 nM | > 5000 nM
7 | C=CCc1ccc(O)c(-c2ccc(O)c(/C=C/C)c2)c1 [Magreth-4] | 1760 nM | > 5000 nM
8 | C=CCc1cc(-c2cc(CC(C)Br)ccc2O)ccc1OC (stereo unspecified) [Magreth-11a] | 1080 nM | > 5000 nM
9 | C=CCc1ccc(O)c(-c2ccc(OC)c(CC(C)Br)c2)c1 (stereo unspecified) [Magreth-11b] | 84 nM | 860 nM
10 | COc1ccc(-c2cc(CC(C)Br)ccc2O)cc1CC(C)Br (stereo unspecified) [Magreth-11c] | 427 nM | > 5000 nM
11 | C=CCc1cc(-c2cc(CC(C)Br)ccc2O)ccc1O (stereo unspecified) [Magreth-12a] | 1260 nM | > 5000 nM
12 | CC(Br)Cc1ccc(O)c(-c2ccc(O)c(CC(C)Br)c2)c1 (stereo unspecified) [Magreth-12b] | 680 nM | > 5000 nM
13 | C=CCc1ccc(O)c(-c2ccc(OC)c(CC=C)c2)c1 [Magreth-14a] | 43.9 nM and 138 nM | 790 nM
14 | C=CCc1ccc(OCC)c(-c2ccc(O)c(CC=C)c2)c1 [Magreth-16a] | 51 nM | 
15 | C=CCc1ccc(O)c(-c2ccc(OCC)c(CC=C)c2)c1 [Magreth-16b] | 40 nM | 970 nM
16 | C=CCc1ccc(OCCC)c(-c2ccc(O)c(CC=C)c2)c1 [Magreth-17a] | 57 nM | > 5000 nM
17 | C=CCc1ccc(O)c(-c2ccc(OCCC)c(CC=C)c2)c1 [Magreth-17b] | 46 nM | > 5000 nM
18 | C=CCc1ccc(OCCCCC)c(-c2ccc(O)c(CC=C)c2)c1 [Magreth-18a] | 102 nM | > 5000 nM
19 | C=CCc1ccc(O)c(-c2ccc(OCCCCC)c(CC=C)c2)c1 [Magreth-18b] | > 3000 nM | > 5000 nM
20 | C=CCc1ccc(OCC)c(-c2ccc(OCC)c(CC=C)c2)c1 [Magreth-19] | 134 nM | > 3000 nM
